Patent publication US20130130306A1, “ZN (II) BASED COLORIMETRIC SENSOR AND PROCESS FOR THE PREPARATION THEREOF” (COUNCIL OF SCIENTIFIC & INDUSTRIAL RESEARCH, priority 2010, published 2013)

Tests used:
[1] = UV-vis spectral response and spectrophotometric titration with ADP; type: binding
Experimental: In order to examine the binding behaviour of the Zn-complex (L.Zn) (Scheme 1, Formula 1A) to various important anions (like ATP, CTP, ADP, AMP, PPi, H2PO4^−, SO4^2−, CH3CO2^−, I^−, Br^−, Cl^− and F^−) the following experiment was conducted. A solution (˜21 mM) for of sodium salts of ATP, CTP, ADP, AMP, PPi, H2PO4^−, SO4^−, CH3CO2^−, I^−, Br^−, Cl^−, and F^− were prepared using respective salt in 10 mM HEPES buffer solutions (pH 7.2) and was stored for use. Further, a solution (44.35 μM) of the compound L.Zn (Scheme 1, Formula 1A) was prepared using doubly-distilled and deionized water and stored. These stored solutions were used on the day of preparation of the solution for experiment. […]
A solution of L.Zn (Scheme 1, Formula 1A) (8.87 μM) in aqueous medium was treated with excess amount of ˜500 μM of different phosphate anions like H2PO4^−, PPi, AMP, ADP, ATP and CTP. […] Thus L.Zn (Scheme 1, Formula 1A) can bind ATP selectively among various phosphate anions and the color change associated with the binding of ATP can be detected through naked eye (FIG. 2). […]

[2] = Spectrophotometric titration, inclusion complex formation with α-CD; type: binding; details: α-CD 0-2.3 mM
Experimental: Preliminary spectral studies reveal that absorption maxima for L.Zn (Scheme 1, Formula 1A) (463 nm) tend to shift to shorter wavelength (458 nm) on addition of aqueous solution of α-CD (0-2.3 mM) in excess to the […] solution of L.Zn (Scheme 1, Formula 1A). Formation of host-guest type inclusion complex on addition of trans-1,2-bis-(4-pyridyl)ethylene, 4,4′-azopyridine (AZP) and some related bipyridine/biphenyl molecules in α-CD is reported by several researcher (Shukla, A. D.; Bajaj, H. C.; Das, A. Angew. Chem. Int. Ed. 2001, 40, 446.; Shukla, A. D.; Bajaj, H. C., Das, A. Nat. Acad. Science, 2002, 114, 431.; Beer, A. J.; Macartney, D. H. Inorg. Chem. 2000, 39, 1410.; Macartney, D. H.; Waddling, C. A.; Inorg. Chem. 1994, 33, 5912.; Philip, D.; Stoddart, J. F. Angew. Chem. Int. Ed. 1996, 35, 1154). It is also reported that inclusion in these compounds in the CD cavity influences the HOMO-LUMO energy gap and there by the absorption spectral bands-though the perturbation of the energy levels are not reported to be an appreciable one. Thus, in this present study, the observed shift of 5 nm could be attributed to the inclusion phenomena and the formation of a pseudo-rotaxane complex.
General formula that was used for calculating the binding constants from UV-vis titrations is given below:
Binding Constant,K=[L.Zn.CD]/{[L.Zn]free[CD]free} (5) […]

[3] = Solubility in water without and with α-cyclodextrin; type: physicochemical
Experimental: Solubility of L.Zn (Scheme 1, Formula 1A) in water is limited (0.0448 gL^−1). However, this could be enhanced in presence of α-cyclodextrin (c-CD). 2.3 mg of L.Zn (Scheme 1, Formula 1A) was dissolved in 5 mL of double distilled water and stirred at 25 to 35° C. for 1 hour. […] Similar experiment was repeated in presence of α-CD. In this case 14.2 mg of α-CD was dissolved in 5 mL of double distilled water containing 2.913 mg of L.Zn (Scheme 1, Formula 1A) and this solution was stirred at 25° C. for 1 hour; while a solution with little suspended solid was obtained. This was filtered using G-4 gooch crucible. Filtrate was collected and optical density (O.D.) of the filtrate was monitored at 458 nm. Considering the complete formation of the inclusion complex (pseudorotaxane form), concentration was evaluated based on the known εLZn.α-CD value and the O.D. at 458 nm. […] L.Zn (Scheme 1, Formula 1A) present in aqueous solution in the pseudorotaxane form is being represented as L.Zn.CD in Scheme 2.

In the case of `CN(C)c1ccc(N=Nc2ccc(S(=O)(=O)N3CCCNCCNCCCNCC3)cc2)cc1.O=[N+]([O-])[O-].O=[N+]([O-])[O-].[Zn+2]` [L.Zn], the “color change on addition of ADP (naked eye)” value ([1]; L.Zn 8.87 μM in aqueous medium, ~500 μM anion) was “Slight color change”, the “binding constant for the formation of the complex L.Zn-ADP” value ([1]; spectrophotometric titration, pH 7.2, 10 mM HEPES, 25° C.) was 142 (±15) M^−1 and the “association constant of inclusion complex with α-CD” value ([2]; aqueous solution) was 255 (+15) M^−1. For the same molecule, the “association constant of inclusion complex with α-CD” value ([2]; aqueous solution (as printed in b187)) was 255 (±15) M^1, the “L.Zn present in solution in presence of α-CD” value ([3]; 14.2 mg α-CD in 5 mL double distilled water, 25° C., O.D. at 458 nm) was 0.34 g/L and the solubility in water ([3]; double distilled water, stirred 1 hour, from optical density of filtrate) was 0.0448 gL^−1. The “solubility in water” value ([3]; present reagent) was “completely soluble in water” and the “increase in solubility in presence of α-CD” value ([3]; water, with versus without α-CD) was about 7.5 fold.
